From patent publication US4510132A, “Compounds for use in antibacterial therapy” (priority 1982, dated 1985)
Entries after “also recorded” stand apart in the source; their conditions may differ.

What was measured:
[1] = tested on: Salmonella typhimurium LT2 strain SL 696; experiment: MIC of antibiotics in the presence of polymyxin nonapeptide, microtiter plate, S. typhimurium; assay type: cell-based; details: for minimum inhibitory concentration (MIC) of the antibiotic: 18 h; for factor by which PMBN sensitized the strain to the antibiotic: S. typhimurium strain SL 696, from Table 1; for MIC of fusidic acid: S. typhimurium
Experimental: (§1) Methods. Smooth Salmonella typhimurium LT2 strain SL 696 (Wilkinson et al 1972 J. Gen. Microbiol. 70,527) was used as indicator organism. It was grown in Luria broth (Miller 1972. Experience in molecular genetics, Cold Spring Harbor Laboratory, New York) at 37° C. in a rotary shaker (220 rpm) into early logarithmic growth phase (Klett 40 units, Klett-Summerson colorimeter, red filter) washed with 0.9% NaCl and resuspended in 0.9% NaCl (final optical density 120 Klett units corresponding to approx. 10^9 cells/ml).
(§2) Erythromycin ethylsuccinate stock solution was prepared by dissolving 5.5 mg of erythromycin […] with 2 ml of 96% ethanol whereafter deionized water was added to a final volume of 5.5 ml. Other antibiotics were readily dissolved in deionized water.
(§3) Experimental procedure: Davis minimal growth medium (Sanderson et al, 1972, Bact. Rev. 36,608) containing glucose (1 g/l), casaminoacids (1 g/l. Difco), tryptophan (20 mg/l), and increasing amounts of a particular antibiotic was inoculated with 10^4 cells per ml of a fresh suspension of indicator bacteria. Aliquots (200 μl) of this inoculated medium were pipetted in wells of a microtiter plate (Titertek, CAT NO. 76-213-05, Flow Laboratories, United States). Each well already contained increasing amounts of the particular polycationic agent in 30 μl of 0.9% NaCl. The plates were sealed with adhesive tape and incubated at 37° C. for 18 h.
(§4) Methods. The known compound, polymyxin E nonapeptide (colistin E nonapeptide, Japanese patent specification Nos. 4178/1971 and 51355/1972) having the following formula: [drawing 5] where leu is leucine, thr is threonine, and dab is diaminobutyric acid, was prepared from polymyxin E (colistin) using an enzymatic ficin treatment as described by Chihara et al (Agr. Biol. Chem. 37,2455, 1973).

[2] = tested on: E. coli strain IH 3080 (018:K1); experiment: MIC of antibiotics in the presence of polymyxin nonapeptide, microtiter plate, E. coli; assay type: cell-based; details: for factor by which PMBN sensitized the strain to the antibiotic: E. coli 018:K1 strain IH 3080, from Table 2; for MIC of the antibiotic: E. coli IH 3080
Experimental: as §1, §2, §3
Methods. The methods were those presented in Example 3 except that E. coli was used as the test organism. The E. coli strain was IH 3080 (018:K1) isolated from the cerebrospinal fluid of a neonate with meningitis.
as §4

[3] = tested on: E. coli strain IH 3080 (018:K1); experiment: Experimental E. coli infection in mice, PMBN combined with erythromycin; assay type: in vivo, female NMRI mice; details: for Number of dead mice: 10 mice per group
Excerpt: Methods. […] The mice were followed 7 days for deaths.

[4] = tested on: E. coli strains IHE 3080, EH 817, IHE 11038, IHE 11055, IHE 11167; experiment: Sensitization of E. coli strains to killing by 10% normal human serum (complement); assay type: cell-based
Experimental: Methods. The strains used were smooth Salmonella typhirmurium LT2 strain SL 696 (Wilkinson et al 1972 J. Gen. Microbiol. 70, 527) and the following E. coli strains isolated at the National Public Health Institute, Helsinki: IHE 3080 (018,K1), EH 817 (018,K1^- derivative of IHE 3080), IHE 11038 (018,K5), IHE 11055 (02,K1), and IHE 11167 (04,K12). Bacteria were grown in Luria broth (Miller 1972. Experiments in molecular genetics, Cold Spring Harbor Laboratory, New York) at 37° C. in a rotary shaker (220 rpm) into early logaritmic growth phase (Klett 40 units, Klett-Summerson colorimeter, red filter) washed with PBS (phosphate buffered saline, 8.0 g of NaCl, 0.2 g of KCl, 1.44 g of Na2 HPO4 x2H2 O and 0.2 g of KH2 PO4 per liter) and resuspended in PBS, (final optical density 120 Klett units corresponding to approx. 10^9 cells/ml).
Pooled normal human serum from 39 healthy blood donors was used as complement source. It was stored at -70° C. before use.
Experimental procedure: 10% NHS in PBS was inoculated with approx. 300 cells of freshly grown bacteria and pipetted in 200 μl aliquots in wells of mictrotiter plate (Titertek®, CAT NO. 76-213-05). The wells already contained increasing amounts of PMBN in 30 μl of 0.9% NaCl. […] The agar plates were incubated overnight at 37° C. and the developed colonies were counted.

[5] = PMBN 0 μg/ml, S. typhimurium SL 696
[6] = PMBN 0.3 μg/ml, S. typhimurium SL 696
[7] = PMBN 1 μg/ml, S. typhimurium SL 696
[8] = PMBN 3 μg/ml, S. typhimurium SL 696
[9] = PMBN 10 μg/ml, S. typhimurium SL 696
[10] = PMBN 30 μg/ml, S. typhimurium SL 696

| Molecule | minimum inhibitory concentration (MIC) of the antibiotic [1, 5] | minimum inhibitory concentration (MIC) of the antibiotic [1, 6] | minimum inhibitory concentration (MIC) of the antibiotic [1, 7] | minimum inhibitory concentration (MIC) of the antibiotic [1, 8] | minimum inhibitory concentration (MIC) of the antibiotic [1, 9] | minimum inhibitory concentration (MIC) of the antibiotic [1, 10] | factor by which PMBN sensitized the strain to the antibiotic [1] | factor by which PMBN sensitized the strain to the antibiotic [2] | MIC of the antibiotic ([2]; PMBN 0 μg/ml) | MIC of the antibiotic ([2]; PMBN 0.3 μg/ml) | MIC of the antibiotic ([2]; PMBN 1 μg/ml) | MIC of the antibiotic ([2]; PMBN 3 μg/ml) | MIC of the antibiotic ([2]; PMBN 10 μg/ml) | further results |
| --- | --- | --- | --- | --- | --- | --- | --- | --- | --- | --- | --- | --- | --- | --- |
| CC1(C)S[C@@H]2[C@H](NC(=O)Cc3ccccc3)C(=O)N2[C@H]1C(=O)O [Benzylpenicillin, benzylpenicillin] | 10 | 10 | 10 | 3 | 3 | 1 | 10 times | 3 times | 10 µg/mL | 10 µg/mL | 10 µg/mL | 3 µg/mL | 3 µg/mL | – |
| CCC[C@@H]1C[C@@H](C(=O)N[C@@H]([C@H]2O[C@H](SC)[C@H](O)[C@@H](O)[C@H]2O)[C@H](C)Cl)N(C)C1.Cl [Clindamycin, clindamycin hydrochloride] | – | – | – | – | – | – | – | – | 30 µg/mL | 3 µg/mL | 3 µg/mL | 3 µg/mL | 3 µg/mL | – |
| Cc1onc(-c2ccccc2Cl)c1C(=O)N[C@@H]1C(=O)N2[C@@H]1SC(C)(C)[C@@H]2C(=O)O [Cloxacillin, cloxacillin] | ≥ 1000 | 300 | 100 | 100 | 30 | 30 | ≥ 30 times | 100 times | > 300 µg/mL | 100 µg/mL | 100 µg/mL | 30 µg/mL | 30 µg/mL | – |
| CCOC(=O)CCC(=O)O[C@H]1[C@H](O[C@@H]2[C@@H](C)[C@H](O[C@H]3C[C@@](C)(OC)[C@@H](O)[C@H](C)O3)[C@@H](C)C(=O)O[C@H](CC)[C@@](C)(O)[C@H](O)[C@@H](C)C(=O)[C@H](C)C[C@@]2(C)O)O[C@H](C)C[C@@H]1N(C)C [Erythromycin, erythromycin ethylsuccinate] | ≥ 100 | 30 | 10 | 10 | 3 | 3 | ≥ 30 times | ≥ 100 times | 30 µg/mL | 1 µg/mL | 1 µg/mL | 1 µg/mL | 1 µg/mL | Number of dead mice ([3]; day 1 after infection, erythromycin 10 mg/kg i.p., PMBN 10 mg/kg s.c.): 7; Number of dead mice ([3]; day 2 after infection): 8; Number of dead mice ([3]; day 3 after infection): 9; Number of dead mice ([3]; day 4 after infection): 9; Number of dead mice ([3]; day 5 after infection): 9; Number of dead mice ([3]; day 6 after infection): 9; Number of dead mice ([3]; day 7 after infection): 9; therapeutic action against the E. coli infection ([3]; mice, erythromycin 10 mg/kg, PMBN 10 mg/kg): without any therapeutic action |
| CC(=O)O[C@H]1C[C@@]2(C)[C@@H](C[C@@H](O)[C@H]3[C@@]4(C)CC[C@@H](O)[C@@H](C)[C@@H]4CC[C@@]32C)/C1=C(\CCC=C(C)C)C(=O)O [Fusidic acid, fusidic acid] | 300 | 100 | 30 | 30 | 10 | ≥ 3 | ≥ 100 times | 100 times | 100 µg/mL | 3 µg/mL | 3 µg/mL | 3 µg/mL | 1 µg/mL | MIC of fusidic acid ([1]; PMEN 0 μg/ml): 300; MIC of fusidic acid ([1]; PMEN 0.3 μg/ml): 100; MIC of fusidic acid ([1]; PMEN 1.0 μg/ml): 30; MIC of fusidic acid ([1]; PMEN 3.0 μg/ml): 10; MIC of fusidic acid ([1]; PMEN 10 μg/ml): 3; MIC of fusidic acid ([1]; PMEN 30 μg/ml): 1; MIC of fusidic acid ([2]; PMEN 0 μg/ml, E. coli): 100; MIC of fusidic acid ([2]; PMEN 0.3 μg/ml, E. coli): 10; MIC of fusidic acid ([2]; PMEN 1.0 μg/ml, E. coli): 10; MIC of fusidic acid ([2]; PMEN 3.0 μg/ml, E. coli): 3; MIC of fusidic acid ([2]; PMEN 10 μg/ml, E. coli): 3; MIC of fusidic acid ([2]; PMEN 30 μg/ml, E. coli): 1 |
| CCOc1ccc2ccccc2c1C(=O)N[C@@H]1C(=O)N2[C@@H]1SC(C)(C)[C@@H]2C(=O)O [Nafcillin, nafcillin] | ≥ 1000 | ≥ 1000 | 100 | 100 | 30 | 30 | ≥ 30 times | – | – | – | – | – | – | – |
| CO[C@@H]1[C@@H](OC(N)=O)[C@@H](O)[C@H](Oc2ccc3c(O)c(NC(=O)c4ccc(O)c(CC=C(C)C)c4)c(=O)oc3c2C)OC1(C)C [Novobiocin, novobiocin] | ≥ 100 | 10 | 3 | 3 | 1 | 1 | ≥ 100 times | 10 times | 30 µg/mL | 10 µg/mL | 10 µg/mL | 3 µg/mL | 3 µg/mL | – |
| CO[C@H]1/C=C/O[C@@]2(C)Oc3c(C)c(O)c4c(O)c(c(/C=N/N5CCN(C)CC5)c(O)c4c3C2=O)NC(=O)/C(C)=C\C=C\[C@H](C)[C@H](O)[C@@H](C)[C@@H](O)[C@@H](C)[C@H](OC(C)=O)[C@@H]1C [Rifampicin] | – | – | – | – | – | – | – | 100 times | 3 µg/mL | 3 µg/mL | 0.1 µg/mL | 0.03 µg/mL | 0.03 µg/mL | – |
| polymyxin B nonapeptide [PMBN] | – | – | – | – | – | – | – | – | – | – | – | – | – | concentration of PMBN required to sensitize the bacteria to most antibiotics by a factor of 10-30 ([1]; S. typhimurium SL 696): 1-3 μg/ml; amount of PMBN sufficient to sensitize E. coli to erythromycin and fusidic acid by a factor of 30 ([2]; E. coli): 0.3 µg; concentration of PMBN that sensitized the strains to killing by 10% NHS ([4]; E. coli strains, 10% normal human serum, 2 h): 0.3 µg/mL; bactericidal action of serum in the presence of PMBN after inactivation of complement ([4]; complement destroyed by heat (30 min at 56° C.) or zymosan A): the serum lost its capacity to kill bacteria; also recorded: NHS lost its bactericidal, PMBN-dependent action |
